Assay results as given in patent publication US8710224B2, “Heterocyclic compounds as CCR2B antagonists” (AstraZeneca AB, priority 2004, dated 2014).

Target: T1, recombinant human CCR5 receptor (Homo sapiens, UniProt P51681)
T1 construct: expressed in transfected cells; host or cells: Chinese hamster ovary (CHO) cells; membranes
Assay: Radioligand binding assay for inhibition of the binding of MIP-1α
Details: displacement of 0.1 nM iodinated MIP-1α; membranes of Chinese hamster ovary cells expressing CCR5
Protocol: Biological Assay for the Ability of Compounds to Inhibit the Binding of MIP-1α This ability is assessed using an in vitro radioligand binding assay. Membranes are prepared from Chinese hamster ovary cells which express the recombinant human CCR5 receptor. These membranes are incubated with 0.1 nM iodinated MIP-1α, scintillation proximity beads and various concentrations of the compounds of the invention in 96-well plates. The amount of iodinated MIP-1α bound to the receptor is then determined by scintillation counting.

T1 sequence (P51681 whole entry): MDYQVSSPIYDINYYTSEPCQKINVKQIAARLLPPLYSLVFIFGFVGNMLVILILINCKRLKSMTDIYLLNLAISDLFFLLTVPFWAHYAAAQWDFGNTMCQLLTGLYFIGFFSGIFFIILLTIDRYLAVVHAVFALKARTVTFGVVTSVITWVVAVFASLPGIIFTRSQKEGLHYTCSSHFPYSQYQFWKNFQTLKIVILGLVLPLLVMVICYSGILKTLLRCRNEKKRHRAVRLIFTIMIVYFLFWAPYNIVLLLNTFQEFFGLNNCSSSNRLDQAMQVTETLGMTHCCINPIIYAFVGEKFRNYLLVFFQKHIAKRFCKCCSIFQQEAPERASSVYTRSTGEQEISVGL

IC50, < 10 µM:
CC(C)N1CCN[C@@H](C(=O)N2CCN(C(=O)Nc3ccc(C(F)(F)F)cc3)CC2)C1 [Example 212, 4-{[(2R)-4-isopropylpiperazin-2-yl]carbonyl}-N-[4-(trifluoromethyl)phenyl]piperazine-1-carboxamide]
CS(=O)(=O)c1ccc(CN2CCC[C@@H](CN3CCN(C(=O)Nc4ccc(Cl)c(Cl)c4)CC3)C2)c(Cl)c1 [Example 322, 4-({(3R)-1-[2-Chloro-4-(methylsulfonyl)benzyl]piperidin-3-yl}methyl)-N-(3,4-dichlorophenyl)piperazine-1-carboxamide]
CN1CCCC(CN2CCN(C(=O)Nc3cc(Cl)cc(Cl)c3)CC2)C1 (stereo not shown) [Example 41, N-(3,5-dichlorophenyl)-4-[(1-methylpiperidin-3-yl)methyl]piperazine-1-carboxamide]
CCC(C)N1CCOC(CN2CCN(C(=O)Nc3ccc(F)c(Cl)c3)CC2)C1 (stereo in doubt) [Example 236, N-(3-chloro-4-fluorophenyl)-4-({(2R)-4-[(1R)-1-methylpropyl]morpholin-2-yl}methyl)piperazine-1-carboxamide]
COCCOc1ccc(CN2CCC[C@@H](CN3CCN(C(=O)Nc4ccc(Cl)c(Cl)c4)CC3)C2)cn1 [Example 258, N-(3,4-dichlorophenyl)-4-[((3R)-1-{[6-(2-methoxyethoxy)pyridin-3-yl]methyl}piperidin-3-yl)methyl]piperazine-1-carboxamide]
O=C(Nc1ccc(Cl)cc1)N1CCN(C[C@@H]2CCCN(CCc3ccccc3)C2)CC1 [Example 181, N-(4-chlorophenyl)-4-{[(3R)-1-(2-phenylethyl)piperidin-3-yl]methyl} piperazine-1-carboxamide]
CCN1CCC[C@@H](CN2CCN(C(=O)Nc3ccc(Cl)c(Cl)c3)CC2=O)C1 [Example 91, N-(3,4-dichlorophenyl)-4-{[(3R)-1-ethylpiperidin-3-yl]methyl}-3-oxopiperazine-1-carboxamide]
CCN1CCN[C@@H](C(=O)N2CCN(C(=O)Nc3ccc(Cl)cc3)CC2)C1 [Example 131, N-(4-Chlorophenyl)-4-{[(2R)-4-ethylpiperazin-2-yl]carbonyl}piperazine-1-carboxamide]
CCN1CCC[C@@H](C(=O)N2CCN(C(=O)Nc3ccc(Cl)c(Cl)c3)CC2)C1 [Example 90, N-(3,4-dichlorophenyl)-4-{[(3R)-1-ethylpiperidin-3-yl]carbonyl}piperazine-1-carboxamide]
O=C(Nc1ccc(Cl)c(Cl)c1)N1CCN(C(=O)[C@H]2CN(C3CCCC3)CCN2)CC1 [Example 276, 4-{[(2R)-4-Cyclopentylpiperazin-2-yl]carbonyl}-N-(3,4-dichlorophenyl)piperazine-1-carboxamide]
CS(=O)(=O)c1ccc(CCCN2CCC[C@@H](CN3CCN(C(=O)Nc4ccc(Cl)c(Cl)c4)CC3)C2)cc1 [Example 328, N-(3,4-Dichlorophenyl)-4-[((3R)-1-{3-[4-(methylsulfonyl)phenyl]propyl}piperidin-3-yl)methyl]piperazine-1-carboxamide]
CCN1CCN[C@@H](C(=O)N2CCN(C(=O)Nc3cccc(Cl)c3)CC2)C1 [Example 132, N-(3-Chlorophenyl)-4-{[(2R)-4-ethylpiperazin-2-yl]carbonyl}piperazine-1-carboxamide]
O=C(Nc1ccc(Cl)c(Cl)c1)N1CCN(C(=O)[C@@H]2CCCN(CCc3ccccc3)C2)CC1 [Example 89, N-(3,4-dichlorophenyl)-4-{[(3R)-1-(2-phenylethyl)piperidin-3-yl]carbonyl}piperazine-1-carboxamide]
